Values of other authors, collected in patent US20240374627A1, “A PHARMACEUTICAL COMPOSITION COMPRISING COMBINATION OF SITAGLIPTIN AND EMPAGLIFLOZIN” (UNISON PHARMACEUTICALS PVT. LTD., priority 2021, published 2024).
Where two headings read alike, the source gives them in different places.

How the values were obtained:
[1] = healthy volunteers; Brand et al., Adv Ther 2012

| SMILES | effect of coadministration on the pharmacokinetics of either drug [1] | solubility (acetonitrile) | solubility (aqueous media between pH 1-7.4, European assessment report of Jardiance) | solubility (ethanol) | solubility (methanol) | solubility (toluene) | solubility (water (pH 1-7.4)) | solubility (N,N-dimethyl formamide) | solubility (acetone) | solubility (isopropanol) | solubility (isopropyl acetate) | solubility (water) |
| --- | --- | --- | --- | --- | --- | --- | --- | --- | --- | --- | --- | --- |
| OC[C@H]1O[C@@H](c2ccc(Cl)c(Cc3ccc(O[C@H]4CCOC4)cc3)c2)[C@H](O)[C@@H](O)[C@@H]1O [Empagliflozin, (1S)-1,5-anhydro-1-(4-chloro-3-{4-[(3S)-tetrahydrofuran-3-yloxy]benzyl}phenyl)-D-glucitol] | without specifying any clinically relevant effect | slightly soluble | slightly soluble | slightly soluble | sparingly soluble | practically insoluble | very slightly soluble |  |  |  |  |  |
| N[C@@H](CC(=O)N1CCn2c(nnc2C(F)(F)F)C1)Cc1cc(F)c(F)cc1F [Sitagliptin, 7-[(3R)-3-amino-1-oxo-4-(2,4,5-trifluorophenyl)butyl]-5,6,7,8-tetrahydro-3-(trifluoromethyl)-1,2,4-triazolo[4,3-a]pyrazine phosphate (1:1) monohydrate] | without specifying any clinically relevant effect | soluble |  | soluble | slightly soluble |  |  | soluble | soluble | insoluble | insoluble | soluble |
